# Source: patent publication US5756491A, “Antiviral cobalt-organic compounds” (priority 1991, dated 1998)
# Where “and” joins values, the source holds several entries; their conditions need not be identical. Equal entries are not always repeated.
# Experiments:
# HFF cells [1] = test: Cell proliferation assay; type: cell-based, human; conditions: rapidly growing cells
# Procedure: Twenty-four hours prior to assay, HFF cells are seeded in 6-well plates at a concentration of 2.5×10^4 cells per well in MEM containing 10% FBS. On the day of the assay, drugs are diluted serially in MEM containing 10% FBS at increments of 1:5 covering a range from 100 μg/ml to 0.03 μg/ml. […] The media from the wells is then aspirated and 2 ml of each drug concentration is then added to each well. The cells are then incubated in a Co2 incubator at 37° C. for 72 h. At the end of this time, the media-drug solution is removed and the cells washed. […] The cell-media mixture is then pipetted up and down vigorously to break up the cell suspension and 0.2 ml of the mixture is added to 9.8 ml of Isoton III and counted using a Coulter Counter. Each sample is counted three times with three replicate wells per sample.
# HSV-2 (MS strain) [2] = test: External genital lesion development in primary genital HSV-2 infection of guinea pigs; type: in vivo, Female Hartley strain guinea pigs; set-up: key to Lesion Score-Day Area Under Curve: area under 0-5+ lesion score vs day curve (score-days); key to Mean Peak Lesion Score: lesion severity on 0-5+ scale
# Procedure: (§1) A series of studies were carried out to compare the activity of inventive antiviral Compounds 23, 76, and 82 in a primary genital HSV-2 infection of guinea pigs. The experiments were placebo-controlled and uninfected animals were treated with three concentrations of each of the preparations to assess skin irritation and determine the maximum tolerated dose.
# (§2) The MS strain of HSV-2 was utilized for the experimental animal infection. Female Hartley strain guinea pigs (Charles River Breeding Laboratories, Kingston, N.Y.) weighing 250-300 g were inoculated intravaginally with 1.4×10^5 plaque forming units of HSV-2 one hour after being swabbed for the removal of vaginal secretions.
# (§3) Groups of 10 infected guinea pigs were treated topically as stated above with 20 mg/ml (the maximum tolerated dose) of each compound beginning 6 h or 24 h after inoculation with HSV-2.
# To determine the effect of therapy on the development and spread of external genital lesions, lesion severity was scored on a 0-5+ scale through the primary infection (21 days). Mean peak lesion scores and the areas under the lesion score-day curves were calculated and analyzed.
# (§4) The number of animals infected over the number inoculated, lesion score-day areas and virus titer-day areas under the curve, peak lesion scores and peak virus titers between untreated and placebo-treated or placebo-treatedand drug-treated animals were compared using the Mann-Whitney U rank sum test. A p-value of 0.05 or less was considered significant.
# HSV-1 McKrae Strain = test: Direct virucidal efficacy against HSV-1 on HFF monolayers; type: cell-based; conditions: for virucidal efficacy (HSV-1 titer): Experiment 1 (Table 2), 24 h PI; for effective virucidal concentration IC50 / effective virucidal concentration IC90: HSV-1
# Procedure: HSV-1 McKrae Strain was diluted to a final concentration of 10^5 PFU/ml in minimal essential medium (MEM). Hereinafter, this dilution is referred to as the HSV-1 Suspension for convenience.
# (§5) With sufficient stirring, all the compounds completely dissolved.
# Each of the drug solutions were mixed with the HSV-1 Suspension in a 1:1 ratio. The drug and HSV-1 Suspension mixture was incubated at 37° C. for thirty minutes with agitation every ten minutes. After the incubation, fifty microliter aliquots were overlaid onto triplicate confluent human foreskin fibroblast (HFF) cell monolayers. The inoculum was absorbed for thirty minutes and then a medium containing the appropriate drug concentration in MEM was added to the monolayers to a final volume of 0.5 milliliters per culture-well. The monolayers were incubated at 37° C. The developing HSV-1 Cytopathology was monitored daily for two days by inverted light microscopy. Titers were calculated by multiple regression analysis. All data is presented as the average PFU/ml reduction at 24 and/or 48 hours after inoculation (PI).
# 1. HSV-1 inoculated, non-compound treated HFF monolayers were included as "positive controls"; and […]
# [3] = system: human foreskin fibroblast (HFF) cell monolayers; test: Toxicity effects controls: sham-inoculated compound-treated HFF monolayers; type: cell-based; conditions: Experiment 1 (Table 1); note: key: +: toxic; -: no toxicity; ±: mild toxicity; T: toxicity effects interfered with CPE rating
# Excerpt: as §5
# In the tables, the symbols have the meaning indicated: […]
# HSV-2 (MS strain) [4] = test: Vaginal virus replication in primary genital HSV-2 infection of guinea pigs; type: in vivo, Female Hartley strain guinea pigs
# Procedure: as §1, §2, §3
# To determine the effect of treatment on vaginal virus replication, swabs of vaginal secretions were obtained on days 1, 3, 5, 7, and 10 after HSV-2 inoculation, placed in a tube containing 2.0 ml of media, vortexed and frozen at -70° until titrated for HSV-2. When all samples were collected, they were thawed, diluted serially and HSV-2 titers were determined using rabbit kidney cells in a microtiter CPE assay. Mean peak virus titers and areas under the virus titer-day curves were calculated and analyzed.
# as §4
# HFF cells [5] = test: MTT assay for cell cytotoxicity; type: cell-based, human; conditions: stationary cells
# Procedure: Twenty-four hours prior to assay, HFF cells are plated into 96 well plates at a concentration of […] cells per well. After 24 h, the media is aspirated and […] of drug is added to the first row of wells and then diluted serially 1:5 using the automated Cetus Liquid Handling System in a manner similar to that used in the CPE assay. The plates are then incubated in a CO2 incubator at 37° C. for seven days. At this time, each well receives 50 microliters of […] solution of MTT in Dulbecco's Phosphate Buffered Saline. The plates are then incubated for an additional four hours. At this time, the media is removed and replaced with 100 μl of 0.04N hydrochloric acid in isopropanol. After shaking briefly, the plates are then read on a plate reader at 550 nm.
# HFF cells [6] = test: Neutral red uptake toxicity; type: cell-based, human; conditions: stationary cells
structure (smiles),measurement,setting,value
"O=c1[nH]c(=O)n([C@@H]2O[C@H](CO)[C@@H](O)[C@@H]2F)cc1I [FIAU, 2'-fluoro-5-iodo-arabinosyl-uracil]","toxicity IC50, cell proliferation",HFF cells [1],8.4 MCG/ML and 3.3 MCG/ML
CC([O-])=CC(C)=NCCN=C(C)C=C(C)[O-].[Br-].[Co+3].c1ccncc1.c1ccncc1 [Compound 76],Lesion Score-Day Area Under Curve,"HSV-2 (MS strain) [2]; 20 mg/ml, started +6h",4.4
same,Mean Peak Lesion Score,"HSV-2 (MS strain) [2]; 20 mg/ml, started +6h",0.4
same,P-Value for Mean Peak Lesion Score,"HSV-2 (MS strain) [2]; 20 mg/ml, started +6h",< 0.001
same,Lesion Score-Day Area Under Curve,"HSV-2 (MS strain) [2]; 20 mg/ml, started +24h",37.2
same,Mean Peak Lesion Score,"HSV-2 (MS strain) [2]; 20 mg/ml, started +24h",3.3
same,lesion AUC difference vs untreated control animals,"HSV-2 (MS strain) [2]; started +24 h, vs untreated control",not significant
same,virucidal efficacy (HSV-1 titer),HSV-1 McKrae Strain; 0.001 mg/ml,10^5 PFU/ml
same,virucidal efficacy (HSV-1 titer),HSV-1 McKrae Strain; .01 mg/ml,10^3 PFU/ml
same,effective virucidal concentration IC50,HSV-1 McKrae Strain; Experiment 1 (Table 3),10 µg/mL
same,effective virucidal concentration IC90,HSV-1 McKrae Strain; Experiment 1 (Table 3),100 to 1000 µg/mL
same,effective virucidal concentration IC50,HSV-1 McKrae Strain; Experiment 2 (Table 6),10 µg/mL
same,effective virucidal concentration IC90,HSV-1 McKrae Strain; Experiment 2 (Table 6),100 to 1000 µg/mL
same,toxicity effects,"[3]; 24 h PI, 0.001 mg/ml",-
same,toxicity effects,"[3]; 24 h PI, 0.01 mg/ml",-
same,toxicity effects,"[3]; 24 h PI, 0.1 mg/ml",-
same,toxicity effects,"[3]; 48 h PI, 0.001 mg/ml",-
same,toxicity effects,"[3]; 48 h PI, 0.01 mg/ml",-
same,toxicity effects,"[3]; 48 h PI, 0.1 mg/ml",-
same,toxicity effects,"[3]; 48 h PI, 1 mg/ml",+
same,toxicity effects,"[3]; 48 h PI, 10 mg/ml",+
same,# Infected/# Inoculated,"HSV-2 (MS strain) [4]; 20 mg/ml, started +6h",5/10
same,Mean Peak Virus Titer,"HSV-2 (MS strain) [4]; 20 mg/ml, started +6h",1.0
same,P-Value for Mean Peak Virus Titer,"HSV-2 (MS strain) [4]; 20 mg/ml, started +6h",< 0.001
same,Virus Titer-Day Area Under Curve,"HSV-2 (MS strain) [4]; 20 mg/ml, started +6h",2.9
same,# Infected/# Inoculated,"HSV-2 (MS strain) [4]; 20 mg/ml, started +24h",10/10
same,Mean Peak Virus Titer,"HSV-2 (MS strain) [4]; 20 mg/ml, started +24h",4.3
same,Virus Titer-Day Area Under Curve,"HSV-2 (MS strain) [4]; 20 mg/ml, started +24h",17.7
same,infectivity rate,HSV-2 (MS strain) [4]; treatment beginning 6 h after infection,50%
CC1=C(Cl)C(C)=[N+]2CC[N+]3=C(C)C(Cl)=C(C)[O][Co-3]23([NH3+])([NH3+])[O]1.[Cl-] [Compound 67],"toxicity IC50, MTT toxicity",HFF cells [5],42.0 MCG/ML
same,"toxicity IC50, cell proliferation",HFF cells [1],12.0 MCG/ML
same,"toxicity IC50, neutral red uptake",HFF cells [6],12.1 MCG/ML
